Laboratory results from patent publication US20220096641A1, “PYRROLOBENZODIAZEPINE DIMER COMPOUND WITH IMPROVED SAFETY AND USE THEREOF” (priority 2019, published 2022).
Read-outs that look alike come from different tables or passages of the source. Square brackets hold non-standard residues; d marks the D form. Peptide text beside a SMILES is read from it. * marks the point of attachment. Dolaproine = CO[C@@H]([C@@H]1CCCN1)[C@@H](C)C(=O)O; Dil = CC[C@H](C)[C@H](NC)[C@@H](CC(=O)O)OC; X1 = C[C@@H](N*)[C@@H](O)c1ccccc1; NMeV = CN[C@H](C(=O)O)C(C)C

Columns and labels:
[1] = tested on: MDA-MB-468 human triple-negative breast cancer cell line (HER2-negative); experiment: Bystander effect experiment, MDA-MB-468 alone; settings: for viability at 0.001 µM: Homo sapiens, MDA-MB-468, 144 h, read-out: Cell viability (%) MDA-MB-468; for Cell viability (%) MDA-MB-468: single concentration of 1 nM, 144 hours, SRB
Procedure: (§1) The cell proliferation inhibitory activity of the drugs and ADC presented in Table 4 below on cancer cell lines was measured. The SK-BR3 human breast cancer cell line (procured from Korea Cell Line Bank (KCLB)) was used as a HER2-positive cell line, and the MDA-MB-468 human triple-negative breast cancer cell line (procured from ATCC) was used as a HER2-negative cell line. […] All ADCs used in the experiment were anti-HER2 ADCs. In a 96-well plate, 6,000 SK-BR3, 6,000 MDA-MB-468, or 3,000 SK-BR3 and 3,000 MDA-MB-468 per well were seeded together, cultured for 24 hours, and then treated with each drug and ADC at a single concentration of 1 nM. After 144 hours, the number of viable cells was quantified using SRB (Sulforhodamine B) dye.

[2] = tested on: Co-culture SK-BR3:MDA-MB-468 = 1:1; experiment: Bystander effect experiment, co-culture; settings: for viability at 0.001 µM: Homo sapiens, 144 h, read-out: Cell viability (%) Co-culture (SK-BR3:MDA-MB-468 = 1:1); for Cell viability (%) Co-culture (SK-BR3:MDA-MB-468 = 1:1): single concentration of 1 nM, 144 hours, SRB
Procedure: as §1

SK-BR3 (HER2 positive) = experiment: In vitro cytotoxicity (cell proliferation inhibition, SRB), SK-BR3; type: cell-based; settings: Homo sapiens
Procedure: (§2) The cell proliferation inhibitory activity of the drugs and ADCs presented in Tables 2 and 3 below on cancer cell lines was measured. As the cancer cell lines, commercially available human breast cancer cell lines MCF-7 (HER2 negative to normal), SK-BR3 (HER2 positive), and JIMT-1 (HER2 positive) were used. […] In a 96-well plate, 5,000 SK-BR3, 5,000 MCF-7, and 2,500 JIMT-1 per well were seeded, cultured for 24 hours, and then treated with ADCs at a concentration of 25 fM to 10 nM (5-fold serial dilutions) and drugs at a concentration of 25 fM to 10 nM (5-fold serial dilutions) or 1 fM to 100 nM (10-fold serial dilutions).

[3] = Rat pre-tox experiment (single dose toxicity); type: in vivo, SD rats; settings: single tail vein dose; for inhibition of weight gain: SG2057 statement for 0.02 mg/kg and 0.04 mg/kg groups
Procedure: Twenty one 8-week-old male SD rats were divided into 7 groups of 3 rats each, the test material was administered thereto through the tail vein at 2 mL/kg one time, and the weight/death/clinical symptoms and the like thereof were observed. The body weight was measured two times a week, and death and clinical symptoms were observed daily. Four weeks after administration, planned slaughter was performed to examine the gross findings of organs. The results are as illustrated in FIG. 3.

[4] = tested on: SK-BR3 human breast cancer cell line (HER2-positive); experiment: Bystander effect experiment, SK-BR3 alone; settings: for viability at 0.001 µM: Homo sapiens, SK-BR-3, 144 h, read-out: Cell viability (%) SK-BR3; for Cell viability (%) SK-BR3: single concentration of 1 nM, 144 hours, SRB
Procedure: as §1

[5] = tested on: MCF-7 (HER2 negative to normal); experiment: In vitro cytotoxicity (cell proliferation inhibition, SRB), MCF-7; type: cell-based; settings: Homo sapiens
Procedure: as §2

JIMT-1 (HER2 positive) = experiment: In vitro cytotoxicity (cell proliferation inhibition, SRB), JIMT-1; type: cell-based; settings: Homo sapiens
Procedure: as §2

[6] = tested on: Co-culture SK-BR3:MDA-MB-468 = 1:1; settings: free toxin control materials; cited from earlier work
[7] = first of three dose groups (dose not given)
[8] = second of three dose groups (apparently 0.02 mg/kg)
[9] = third of three dose groups (apparently 0.04 mg/kg)
[10] = SK-BR-3, 144 h, read-out: IC50 (nM) SK-BR3, pyrrolobenzodiazepine derivatives (free drugs), 144 hours, SRB
[11] = MCF7, 144 h, read-out: IC50 (nM) MCF7, pyrrolobenzodiazepine derivatives (free drugs), 144 hours, SRB
[12] = JIMT-1, 144 h, read-out: IC50 (nM) JIMT-1, pyrrolobenzodiazepine derivatives (free drugs), 144 hours, SRB

SMILES: C=C1CC2CNc3cc(OCc4cc(COc5cc6c(cc5OC)C(=O)N5CC(=C)C[C@H]5CN6)cc(OCCOCCOCCOCC(=O)O)c4)c(OC)cc3C(=O)N2C1 (some centres unmarked) [Compound 32]
- viability at 0.001 µM [1]: 101%
- viability at 0.001 µM [2]: 98%
- bystander effect ([2]; conclusion from mono- and co-culture viability at 1 nM): do not exhibit a bystander effect
- IC50 (SK-BR3 (HER2 positive); SK-BR-3, pyrrolobenzodiazepine derivatives (free drugs), 144 hours, SRB, read-out: IC50 (nM) SK-BR3): 18.2 nM
- body weight at end of 4th week as compared to body weight at time of administration [3, 7]: 171%
- body weight at end of 4th week as compared to body weight at time of administration [3, 8]: 164%
- inhibition of weight gain [3]: very insignificant
- body weight at end of 4th week as compared to body weight at time of administration [3, 9]: 161%
- viability at 0.001 µM [4]: 98%
- IC50 ([5]; MCF7, pyrrolobenzodiazepine derivatives (free drugs), 144 hours, SRB, read-out: IC50 (nM) MCF7): > 100 nM
- IC50 (JIMT-1 (HER2 positive); JIMT-1, pyrrolobenzodiazepine derivatives (free drugs), 144 hours, SRB, read-out: IC50 (nM) JIMT-1): > 100 nM

SMILES: C=C1C[C@H]2C=Nc3cc(OCc4cc(COc5cc6c(cc5OC)C(=O)N5CC(=C)C[C@H]5C=N6)cc(OCCOCCOCCOCC(=O)OC)c4)c(OC)cc3C(=O)N2C1 [Compound 33]
- IC50 (SK-BR3 (HER2 positive); [10]): > 100 nM
- IC50 [5, 11]: > 100 nM
- IC50 (JIMT-1 (HER2 positive); [12]): > 100 nM

SMILES: C=C1C[C@H]2C=Nc3cc(OCc4cc(COc5cc6c(cc5OC)C(=O)N5CC(=C)C[C@H]5C=N6)cc(OCCOCCOCCOCC(=O)NC(CC(=O)O)CC(=O)O)c4)c(OC)cc3C(=O)N2C1 [Compound 52]
- IC50 (SK-BR3 (HER2 positive); [10]): > 100 nM
- IC50 [5, 11]: > 100 nM
- IC50 (JIMT-1 (HER2 positive); [12]): > 100 nM

SMILES: C=C1C[C@H]2C=Nc3cc(OCc4cc(COc5cc6c(cc5OC)C(=O)N5CC(=C)C[C@H]5C=N6)cc(OCCOCCOCCOCC(=O)NC(CC(=O)OC)CC(=O)OC)c4)c(OC)cc3C(=O)N2C1 [Compound 53]
- IC50 (SK-BR3 (HER2 positive); [10]): 2.52 nM
- IC50 [5, 11]: 11.8 nM
- IC50 (JIMT-1 (HER2 positive); [12]): 8.93 nM

SMILES: CC[C@H](C)[C@@H]([C@@H](CC(=O)N1CCC[C@H]1[C@H](OC)[C@@H](C)C(=O)N[C@H](C)[C@@H](O)c1ccccc1)OC)N(C)C(=O)[C@@H](NC(=O)[C@@H](NC)C(C)C)C(C)C [MMAE] (H-[NMeV]V[Dil][Dolaproine]-X1)
- bystander effect (already known) [6]: known to exhibit a bystander effect
- Cell viability (%) MDA-MB-468 [1]: 14%
- Cell viability (%) Co-culture (SK-BR3:MDA-MB-468 = 1:1) [2]: 12%
- Cell viability (%) SK-BR3 [4]: 12%

SMILES: CC[C@H](C)[C@@H]([C@@H](CC(=O)N1CCC[C@H]1[C@H](OC)[C@@H](C)C(=O)N[C@@H](Cc1ccccc1)C(=O)O)OC)N(C)C(=O)[C@@H](NC(=O)[C@@H](NC)C(C)C)C(C)C [MMAF] (H-[NMeV]V[Dil][Dolaproine]F-OH)
- bystander effect (already known) [6]: known to exhibit no bystander effect
- Cell viability (%) MDA-MB-468 [1]: 105%
- Cell viability (%) Co-culture (SK-BR3:MDA-MB-468 = 1:1) [2]: 99%
- Cell viability (%) SK-BR3 [4]: 101%

SMILES: C=C1C[C@H]2C=Nc3cc(OCCCCCOc4cc5c(cc4OC)C(=O)N4CC(=C)C[C@H]4C=N5)c(OC)cc3C(=O)N2C1 [SG2057]
- viability at 0.001 µM [1]: 4%
- viability at 0.001 µM [2]: 6%
- IC50 (SK-BR3 (HER2 positive); SK-BR-3, 144 h, read-out: IC50 (nM) SK-BR3, comparison of anti-HER2 ADCs, 144 hours, SRB): 0.02 nM
- IC50 (SK-BR3 (HER2 positive); [10]): 0.01 nM
- body weight at end of 4th week as compared to body weight at time of administration [3, 7]: 167%
- body weight at end of 4th week as compared to body weight at time of administration [3, 8]: 148%
- inhibition of weight gain [3]: significantly inhibited weight gain
- body weight at end of 4th week as compared to body weight at time of administration [3, 9]: 115%
- viability at 0.001 µM [4]: 7%
- IC50 ([5]; MCF7, 144 h, read-out: IC50 (nM) MCF7, comparison of anti-HER2 ADCs, 144 hours, SRB): 0.06 nM
- IC50 [5, 11]: 0.05 nM
- IC50 (JIMT-1 (HER2 positive); JIMT-1, 144 h, read-out: IC50 (nM) JIMT-1, comparison of anti-HER2 ADCs, 144 hours, SRB): 0.05 nM
- IC50 (JIMT-1 (HER2 positive); [12]): 0.04 nM
